How the values were obtained:
[1] = biological target: Mitogen-activated protein kinase kinase kinase kinase 5 (Homo sapiens) (UniProt Q9Y4K4); conditions: Compound concentration 1000.0 nM
[2] = biological target: Ephrin type-B receptor 3 (Homo sapiens) (UniProt P54753); conditions: Compound concentration 1000.0 nM
[3] = biological target: TRAF2 and NCK-interacting protein kinase (Homo sapiens) (UniProt Q9UKE5); conditions: Compound concentration 1000.0 nM
[4] = biological target: Casein kinase I isoform gamma-2 (Homo sapiens) (UniProt P78368); conditions: Compound concentration 1000.0 nM
[5] = biological target: Serine/threonine-protein kinase ULK1 (Homo sapiens) (UniProt O75385); conditions: Compound concentration 1000.0 nM
[6] = tested on: Epidermal growth factor receptor (Homo sapiens), P00533 [G719S]; conditions: Compound concentration 1000.0 nM
[7] = biological target: Mitogen-activated protein kinase kinase kinase 2 (Homo sapiens) (UniProt Q9Y2U5); conditions: Compound concentration 1000.0 nM
[8] = biological target: Cyclin-dependent kinase-like 3 (Homo sapiens) (UniProt Q8IVW4); conditions: Compound concentration 1000.0 nM
[9] = biological target: Serine/threonine-protein kinase PLK3 (Homo sapiens) (UniProt Q9H4B4); conditions: Compound concentration 1000.0 nM
[10] = biological target: Cyclin-dependent kinase 19 (Homo sapiens) (UniProt Q9BWU1); conditions: Compound concentration 1000.0 nM
[11] = biological target: Eukaryotic translation initiation factor 2-alpha kinase 1 (Homo sapiens) (UniProt Q9BQI3); conditions: Compound concentration 1000.0 nM
[12] = biological target: D(1B) dopamine receptor (Homo sapiens) (UniProt P21918); conditions: Compound concentration 10.0 uM
[13] = biological target: Tyrosine-protein kinase ABL1 (Homo sapiens) (UniProt P00519); conditions: Compound concentration 1000.0 nM
[14] = biological target: RAC-beta serine/threonine-protein kinase (Homo sapiens) (UniProt P31751); conditions: Compound concentration 1000.0 nM
[15] = biological target: Serine/threonine-protein kinase PAK 6 (Homo sapiens) (UniProt Q9NQU5); conditions: Compound concentration 1000.0 nM
[16] = tested on: Tyrosine-protein kinase ABL1 (Homo sapiens), P00519 [Q252H]; conditions: Compound concentration 1000.0 nM
[17] = biological target: Beta-1 adrenergic receptor (Homo sapiens) (UniProt P08588); conditions: Compound concentration 10.0 uM
[18] = biological target: Calcium/calmodulin-dependent protein kinase type II subunit gamma (Homo sapiens) (UniProt Q13555); conditions: Compound concentration 1000.0 nM
[19] = biological target: NUAK family SNF1-like kinase 2 (Homo sapiens) (UniProt Q9H093); conditions: Compound concentration 1000.0 nM
[20] = biological target: Ephrin type-A receptor 1 (Homo sapiens) (UniProt P21709); conditions: Compound concentration 1000.0 nM
[21] = biological target: Ankyrin repeat and protein kinase domain-containing protein 1 (Homo sapiens) (UniProt Q8NFD2); conditions: Compound concentration 1000.0 nM
[22] = biological target: Muscle, skeletal receptor tyrosine-protein kinase (Homo sapiens) (UniProt O15146); conditions: Compound concentration 1000.0 nM
[23] = tested on: Serine/threonine-protein kinase B-raf (Homo sapiens), P15056 [V600E]; conditions: Compound concentration 1000.0 nM
[24] = biological target: cGMP-dependent protein kinase 2 (Homo sapiens) (UniProt Q13237); conditions: Compound concentration 1000.0 nM
[25] = biological target: Vascular endothelial growth factor receptor 2 (Homo sapiens) (UniProt P35968); conditions: Compound concentration 1000.0 nM
[26] = biological target: Cyclin-dependent kinase 17 (Homo sapiens) (UniProt Q00537); conditions: Compound concentration 1000.0 nM
[27] = biological target: MAP/microtubule affinity-regulating kinase 3 (Homo sapiens) (UniProt P27448); conditions: Compound concentration 1000.0 nM
[28] = biological target: Mast/stem cell growth factor receptor Kit (Homo sapiens) (UniProt P10721); conditions: Compound concentration 1000.0 nM
[29] = biological target: Aurora kinase C (Homo sapiens) (UniProt Q9UQB9); conditions: Compound concentration 1000.0 nM
[30] = tested on: Epidermal growth factor receptor (Homo sapiens), P00533 [T790M]; conditions: Compound concentration 1000.0 nM
[31] = biological target: Ribosomal protein S6 kinase alpha-3 (Homo sapiens) (UniProt P51812); conditions: Compound concentration 1000.0 nM
[32] = biological target: Homeodomain-interacting protein kinase 4 (Homo sapiens) (UniProt Q8NE63); conditions: Compound concentration 1000.0 nM
[33] = biological target: MAP kinase-interacting serine/threonine-protein kinase 2 (Homo sapiens) (UniProt Q9HBH9); conditions: Compound concentration 1000.0 nM
[34] = biological target: Receptor-type tyrosine-protein kinase FLT3 (Homo sapiens) (UniProt P36888); conditions: Compound concentration 1000.0 nM
[35] = biological target: Bone morphogenetic protein receptor type-2 (Homo sapiens) (UniProt Q13873); conditions: Compound concentration 1000.0 nM
[36] = biological target: Cyclin-dependent kinase-like 2 (Homo sapiens) (UniProt Q92772); conditions: Compound concentration 1000.0 nM
[37] = tested on: Phosphatidylinositol 4,5-bisphosphate 3-kinase catalytic subunit alpha isoform (Homo sapiens), P42336 [H1047Y]; conditions: Compound concentration 1000.0 nM
[38] = biological target: Ribosomal protein S6 kinase alpha-4 (Homo sapiens) (UniProt O75676); conditions: Compound concentration 1000.0 nM
[39] = tested on: Hepatocyte growth factor receptor (Homo sapiens), P08581 [M1250T]; conditions: Compound concentration 1000.0 nM
[40] = biological target: Mitogen-activated protein kinase 1 (Homo sapiens) (UniProt P28482); conditions: Compound concentration 1000.0 nM
[41] = biological target: Ephrin type-A receptor 6 (Homo sapiens) (UniProt Q9UF33); conditions: Compound concentration 1000.0 nM
[42] = biological target: Aurora kinase B (Homo sapiens) (UniProt Q96GD4); conditions: Compound concentration 1000.0 nM
[43] = biological target: Dual specificity protein kinase CLK2 (Homo sapiens) (UniProt P49760); conditions: Compound concentration 1000.0 nM
[44] = biological target: Ephrin type-A receptor 4 (Homo sapiens) (UniProt P54764); conditions: Compound concentration 1000.0 nM
[45] = biological target: Serine/threonine-protein kinase MRCK beta (Homo sapiens) (UniProt Q9Y5S2); conditions: Compound concentration 1000.0 nM
Serine/threonine-protein kinase MRCK beta (Homo sapiens), sequence (Q9Y5S2 whole entry): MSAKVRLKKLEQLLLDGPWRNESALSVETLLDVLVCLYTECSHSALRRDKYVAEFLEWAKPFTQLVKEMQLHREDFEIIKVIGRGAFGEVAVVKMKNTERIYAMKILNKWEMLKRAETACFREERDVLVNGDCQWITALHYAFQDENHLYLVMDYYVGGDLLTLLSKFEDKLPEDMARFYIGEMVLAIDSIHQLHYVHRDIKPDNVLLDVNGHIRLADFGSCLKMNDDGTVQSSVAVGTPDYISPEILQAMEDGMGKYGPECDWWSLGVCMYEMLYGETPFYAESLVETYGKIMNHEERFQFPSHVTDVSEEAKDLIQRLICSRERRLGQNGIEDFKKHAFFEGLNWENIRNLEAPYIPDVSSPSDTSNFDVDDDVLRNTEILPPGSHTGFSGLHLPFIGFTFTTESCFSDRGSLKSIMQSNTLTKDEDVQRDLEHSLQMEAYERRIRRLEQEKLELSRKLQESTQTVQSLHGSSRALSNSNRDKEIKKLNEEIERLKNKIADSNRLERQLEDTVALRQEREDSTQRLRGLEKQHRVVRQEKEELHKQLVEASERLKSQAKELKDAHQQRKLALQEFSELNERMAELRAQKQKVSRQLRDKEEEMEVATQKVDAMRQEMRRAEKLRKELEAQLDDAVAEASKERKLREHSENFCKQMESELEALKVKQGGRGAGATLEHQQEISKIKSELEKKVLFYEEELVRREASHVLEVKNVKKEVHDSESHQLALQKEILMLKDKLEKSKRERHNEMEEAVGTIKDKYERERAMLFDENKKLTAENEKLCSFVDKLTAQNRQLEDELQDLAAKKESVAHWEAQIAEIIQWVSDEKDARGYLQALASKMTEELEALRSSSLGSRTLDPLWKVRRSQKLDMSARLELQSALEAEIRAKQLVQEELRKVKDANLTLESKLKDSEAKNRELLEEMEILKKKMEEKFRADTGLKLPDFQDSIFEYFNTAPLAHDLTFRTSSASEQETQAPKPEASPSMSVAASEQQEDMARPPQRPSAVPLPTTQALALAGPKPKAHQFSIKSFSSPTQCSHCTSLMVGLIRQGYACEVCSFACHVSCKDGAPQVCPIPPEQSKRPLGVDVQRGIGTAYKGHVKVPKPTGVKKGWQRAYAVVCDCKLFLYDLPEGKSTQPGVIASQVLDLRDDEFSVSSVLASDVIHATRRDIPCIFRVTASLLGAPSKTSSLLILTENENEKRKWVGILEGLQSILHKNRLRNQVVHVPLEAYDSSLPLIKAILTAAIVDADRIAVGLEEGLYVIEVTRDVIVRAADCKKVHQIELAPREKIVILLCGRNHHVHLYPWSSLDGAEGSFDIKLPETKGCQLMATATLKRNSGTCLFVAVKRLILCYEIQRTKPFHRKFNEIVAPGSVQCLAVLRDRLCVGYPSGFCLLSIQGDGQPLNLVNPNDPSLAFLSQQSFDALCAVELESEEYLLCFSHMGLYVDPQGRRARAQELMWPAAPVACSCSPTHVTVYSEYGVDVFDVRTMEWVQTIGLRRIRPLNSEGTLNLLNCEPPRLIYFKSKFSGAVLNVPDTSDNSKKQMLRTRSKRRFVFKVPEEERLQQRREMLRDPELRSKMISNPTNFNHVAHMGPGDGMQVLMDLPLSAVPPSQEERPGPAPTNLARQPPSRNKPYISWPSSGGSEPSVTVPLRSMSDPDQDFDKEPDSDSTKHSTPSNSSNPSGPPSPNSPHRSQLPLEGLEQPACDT

Aurora kinase B (Homo sapiens), sequence (Q96GD4 whole entry): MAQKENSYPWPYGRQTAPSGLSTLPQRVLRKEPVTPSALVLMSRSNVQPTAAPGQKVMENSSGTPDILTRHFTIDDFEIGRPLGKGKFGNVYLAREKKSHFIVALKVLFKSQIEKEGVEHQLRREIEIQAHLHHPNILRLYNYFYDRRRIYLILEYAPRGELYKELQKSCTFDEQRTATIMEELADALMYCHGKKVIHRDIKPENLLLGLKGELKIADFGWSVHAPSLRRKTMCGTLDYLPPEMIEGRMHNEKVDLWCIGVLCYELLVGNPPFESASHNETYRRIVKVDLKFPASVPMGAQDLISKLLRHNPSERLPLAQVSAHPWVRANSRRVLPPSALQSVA
Serine/threonine-protein kinase B-raf (Homo sapiens), P15056 [V600E], sequence (P15056 whole entry V600E): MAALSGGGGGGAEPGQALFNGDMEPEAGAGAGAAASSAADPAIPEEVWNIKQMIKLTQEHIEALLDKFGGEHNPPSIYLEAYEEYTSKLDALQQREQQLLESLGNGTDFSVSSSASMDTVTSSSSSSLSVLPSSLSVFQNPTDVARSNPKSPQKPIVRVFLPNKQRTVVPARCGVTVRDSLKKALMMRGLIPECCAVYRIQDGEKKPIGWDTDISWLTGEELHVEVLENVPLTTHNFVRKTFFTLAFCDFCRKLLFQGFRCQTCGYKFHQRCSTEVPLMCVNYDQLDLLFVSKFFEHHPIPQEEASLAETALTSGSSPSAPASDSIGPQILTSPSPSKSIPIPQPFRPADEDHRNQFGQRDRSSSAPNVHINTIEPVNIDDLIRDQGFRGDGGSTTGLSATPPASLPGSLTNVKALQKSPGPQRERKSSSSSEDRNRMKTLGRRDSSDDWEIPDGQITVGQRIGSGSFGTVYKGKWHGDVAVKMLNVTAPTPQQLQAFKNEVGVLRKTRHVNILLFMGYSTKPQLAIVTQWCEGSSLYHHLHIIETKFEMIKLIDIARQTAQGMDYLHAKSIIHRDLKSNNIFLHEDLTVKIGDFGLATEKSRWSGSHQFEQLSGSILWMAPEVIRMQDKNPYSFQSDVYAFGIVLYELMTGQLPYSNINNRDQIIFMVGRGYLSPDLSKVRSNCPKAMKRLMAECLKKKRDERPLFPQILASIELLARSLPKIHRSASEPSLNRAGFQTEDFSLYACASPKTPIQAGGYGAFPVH
MAP kinase-interacting serine/threonine-protein kinase 2 (Homo sapiens), sequence (Q9HBH9 whole entry, looked up): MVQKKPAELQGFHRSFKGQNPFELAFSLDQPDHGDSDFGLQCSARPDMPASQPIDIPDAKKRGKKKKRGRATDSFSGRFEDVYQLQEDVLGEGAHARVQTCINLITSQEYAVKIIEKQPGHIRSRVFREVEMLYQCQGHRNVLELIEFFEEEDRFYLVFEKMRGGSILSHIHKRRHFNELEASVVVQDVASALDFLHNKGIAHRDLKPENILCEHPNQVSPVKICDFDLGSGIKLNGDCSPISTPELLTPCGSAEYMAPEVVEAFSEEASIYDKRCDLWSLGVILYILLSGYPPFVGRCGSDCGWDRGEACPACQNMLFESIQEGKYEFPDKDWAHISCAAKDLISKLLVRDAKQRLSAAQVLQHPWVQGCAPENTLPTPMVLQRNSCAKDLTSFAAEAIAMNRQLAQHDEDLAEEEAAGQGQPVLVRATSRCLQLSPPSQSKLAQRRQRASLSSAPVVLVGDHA
NUAK family SNF1-like kinase 2 (Homo sapiens), sequence (Q9H093 whole entry): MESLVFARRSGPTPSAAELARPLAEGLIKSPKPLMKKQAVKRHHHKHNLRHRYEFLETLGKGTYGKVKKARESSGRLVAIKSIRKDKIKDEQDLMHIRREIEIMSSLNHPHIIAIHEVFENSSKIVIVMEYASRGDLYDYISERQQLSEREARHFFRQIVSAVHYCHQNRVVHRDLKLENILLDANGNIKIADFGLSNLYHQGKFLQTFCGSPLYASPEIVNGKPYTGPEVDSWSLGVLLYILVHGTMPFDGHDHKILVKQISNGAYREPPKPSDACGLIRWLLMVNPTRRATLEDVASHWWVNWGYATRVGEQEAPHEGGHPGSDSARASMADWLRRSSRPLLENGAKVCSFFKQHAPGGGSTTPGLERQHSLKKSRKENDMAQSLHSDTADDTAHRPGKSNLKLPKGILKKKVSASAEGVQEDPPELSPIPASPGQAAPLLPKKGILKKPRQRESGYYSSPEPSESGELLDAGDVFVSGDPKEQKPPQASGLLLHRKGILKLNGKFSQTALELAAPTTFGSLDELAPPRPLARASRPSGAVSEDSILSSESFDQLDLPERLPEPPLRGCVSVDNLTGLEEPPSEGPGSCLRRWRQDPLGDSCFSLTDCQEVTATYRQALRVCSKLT
Cyclin-dependent kinase 19 (Homo sapiens), sequence (Q9BWU1 whole entry): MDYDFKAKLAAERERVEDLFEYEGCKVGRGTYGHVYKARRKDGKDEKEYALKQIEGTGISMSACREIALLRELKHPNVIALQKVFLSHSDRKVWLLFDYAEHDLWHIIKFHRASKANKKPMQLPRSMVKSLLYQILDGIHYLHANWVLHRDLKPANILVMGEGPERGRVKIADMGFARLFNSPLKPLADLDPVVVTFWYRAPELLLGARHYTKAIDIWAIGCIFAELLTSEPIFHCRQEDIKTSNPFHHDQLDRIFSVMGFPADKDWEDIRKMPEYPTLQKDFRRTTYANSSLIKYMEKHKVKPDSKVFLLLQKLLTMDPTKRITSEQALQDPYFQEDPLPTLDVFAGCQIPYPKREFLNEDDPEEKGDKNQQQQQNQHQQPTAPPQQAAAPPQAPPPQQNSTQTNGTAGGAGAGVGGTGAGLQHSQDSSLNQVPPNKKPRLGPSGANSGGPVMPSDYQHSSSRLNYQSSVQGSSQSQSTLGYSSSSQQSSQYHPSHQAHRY
RAC-beta serine/threonine-protein kinase (Homo sapiens), sequence (P31751 whole entry): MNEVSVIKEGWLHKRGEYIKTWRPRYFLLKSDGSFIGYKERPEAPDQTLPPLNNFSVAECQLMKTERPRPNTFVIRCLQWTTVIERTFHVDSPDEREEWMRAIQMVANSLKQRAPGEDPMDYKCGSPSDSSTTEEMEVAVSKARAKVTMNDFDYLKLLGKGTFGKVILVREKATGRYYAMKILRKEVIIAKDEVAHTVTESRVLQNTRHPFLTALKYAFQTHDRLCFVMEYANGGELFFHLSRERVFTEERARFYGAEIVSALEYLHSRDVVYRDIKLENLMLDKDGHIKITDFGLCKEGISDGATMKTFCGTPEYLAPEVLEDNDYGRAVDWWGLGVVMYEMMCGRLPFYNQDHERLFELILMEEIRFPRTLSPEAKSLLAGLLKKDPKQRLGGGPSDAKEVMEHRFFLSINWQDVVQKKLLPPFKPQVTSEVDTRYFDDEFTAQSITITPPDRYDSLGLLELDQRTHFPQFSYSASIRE

O=c1nc(-c2ccccn2)sc2ccccc12 [BTZO-1]
inactive: residual activity [1] 100% | residual activity [2] 100% | residual activity [3] 83% | residual activity [4] 74% | residual activity [5] 100% | residual activity [6] 71% | residual activity [7] 92% | residual activity [8] 88% | residual activity [9] 82% | residual activity [10] 86% | residual activity [11] 97% | inhibition [12] 21.5% | residual activity [13] 89% | residual activity [14] 100% | residual activity [15] 100% | residual activity [16] 96% | inhibition [17] -8.56% | residual activity [18] 96% | residual activity [19] 100% | residual activity [20] 100% | residual activity [21] 100% | residual activity [22] 100% | residual activity [23] 100% | residual activity [24] 96% | residual activity [25] 100% | residual activity [26] 100% | residual activity [27] 89% | residual activity [28] 97% | residual activity [29] 97% | residual activity [30] 100% | residual activity [31] 71% | residual activity [32] 85% | residual activity [33] 100% | residual activity [34] 98% | residual activity [35] 100% | residual activity [36] 76% | residual activity [37] 94% | residual activity [38] 100% | residual activity [39] 98% | residual activity [40] 91% | residual activity [41] 100% | residual activity [42] 82% | residual activity [43] 80% | residual activity [44] 100% | residual activity [45] 100%

O=C1NC(c2ccccn2)Sc2ccccc21 (stereo not given) [BTZO-4]
inactive: residual activity [1] 100% | residual activity [2] 80% | residual activity [3] 100% | residual activity [4] 88% | residual activity [5] 100% | residual activity [6] 82% | residual activity [7] 82% | residual activity [8] 88% | residual activity [9] 88% | residual activity [10] 100% | residual activity [11] 79% | inhibition [12] 11.2% | residual activity [13] 72% | residual activity [14] 92% | residual activity [15] 100% | residual activity [16] 75% | inhibition [17] -1.52% | residual activity [18] 98% | residual activity [19] 100% | residual activity [20] 100% | residual activity [21] 77% | residual activity [22] 90% | residual activity [23] 94% | residual activity [24] 90% | residual activity [25] 82% | residual activity [26] 100% | residual activity [27] 95% | residual activity [28] 88% | residual activity [29] 90% | residual activity [30] 96% | residual activity [31] 72% | residual activity [32] 70% | residual activity [33] 100% | residual activity [34] 92% | residual activity [35] 80% | residual activity [36] 76% | residual activity [37] 67% | residual activity [38] 100% | residual activity [39] 72% | residual activity [40] 89% | residual activity [41] 79% | residual activity [42] 100% | residual activity [43] 95% | residual activity [44] 89% | residual activity [45] 100%
